Results on 3 compounds are retold here after paper PMC7019173, “Stapled peptide targeting the CDK4/Cyclin D interface combined with Abemaciclib inhibits KRAS mutant lung cancer growth” (Theranostics, 2020).

Where a SMILES comes first, the peptide text is derived from it. Bridges are numbered along the chain shown (N, C = ends). [ ]: non-standard residue; d: D form. S5 = C=CCCC[C@](C)(N)C(=O)O

Data set [1] relates to A549 cells. Nature of the data set: cells. It counts as cell-based, human. The settings on record: Homo sapiens, A549; 48 hours, crystal violet, at least two independent experiments (n=4/experiment) ± SD, Grafit; read-out: IC50 A549 cell proliferation. Here is the method: Non-small cell lung cancer A549, H358 and PC9 cell lines used in this study. Cell culture media, serum and antibiotics were purchased from Life Technologies. All cell lines were cultured in RPMI + Glutamax supplemented with 10% FCS, 100 units/mL penicillin (G sodium salt) and 100 µg/mL streptomycin at 37 °C in an atmosphere containing 5% CO2. […] Stock solutions of drugs were prepared in DMSO and freshly diluted in PBS to the desired concentration prior to use, then added onto unsynchronized cells cultured to subconfluency (60-70%), which were then further incubated for 24, 48 or 72 h. Cell proliferation was determined by crystal violet assay following treatment with drugs. Cells were washed with PBS, fixed with 3.7% formaldehyde for 10 min and then incubated with 0.1% crystal violet dye for 30 min. After rinsing, crystals were dissolved in 10% acetic acid and viability was determined by measuring absorbance at 595 nm.

In data set [2] the test system is H358 orthotopic lung tumours. Nature of the data set: Antitumour efficacy in mice with orthotopic lung tumour. It counts as in vivo. Here is the method:
Luciferase-modified human H358 NSCLC cells (H358-Luc cells) were suspended in medium with 10 mM EDTA and 5 mg/mL Matrigel (BD Biosciences) at 5.10^6 cells/50 μL. Six-week-old female NMRI nude mice (Janvier, Le Genest, Saint Isle, France) were anesthetized (isoflurane/air 4% for induction and 1.5% thereafter), and cells were inoculated in the lungs via the airways as previously described, [48]. Non-invasive in vivo bioluminescence imaging (IVIS Kinetic, Perkin-Elmer) was used 10 min after the intraperitoneal injection of 10 mg/mL D-Luciferin (Promega, Charbonnières, France) to monitor the quality of the implantation and to follow orthotopic growth, [48]. […] Five weeks after the inoculation of H358-Luc cells, when bioluminescent orthotopic tumours were detected, nude mice were randomly divided into 6 groups. […] To determine proliferative index, total and Ki67 positive tumour epithelial cells were scored on two to eight fields per mouse in three or four mice per group, and reported as percentage of Ki67 positive cells. […] Total and p-RB positive tumour epithelial cells were scored on two to twenty-nine fields per mouse in three or four mice per group, and reported as percentage of p-RB positive cells in each field and each treatment group.

Data set [3] deals with A549 cells. The experiment in a line: Flow cytometry cell cycle analysis. The format is cell-based, human. The settings on record: 24 h, Abemaciclib 0.5 and 5 µM, Ctrl stapled peptide 10 µM, P2short 1 or 10 µM. Here is the method: Cells were trypsinized and fixed in 70% ice cold ethanol, washed in PBS and resuspended in PBS-1% BSA-50 mM citrate with 25 µg/mL RNase A for 15 min at 37 °C, supplemented with 25 µg/mL of propidium iodide for 30 min at room temperature. For each condition 20000 events were analysed by Gallios (Beckman Coulter) and data analysis was performed using FlowJo Software.
(Flow cytometry measures light scatter and fluorescence of single cells or particles in a stream.)

The target in data set [4] is C4D peptide derived from the alpha 5 helix of cyclin D1 (Homo sapiens, UniProt P24385). The experiment in a line: Fluorescence titration of TP2-Rho-labelled C4D peptide with CDK4 C helix-derived peptides. The format is binding. The settings on record: 200 nM TP2-Rho labelled C4D peptide, PBS, 30 °C, average of n = 3 to 5 ± SD. As to the method:
(§1) TP2-Rho-labelled peptides: peptides were labelled on a unique cysteine residue with a five-fold molar excess of TP2-Rho-maleimide overnight, and then purified from free dye on NAP-5 columns (GE Healthcare), as described previously.
(§2) Fluorescence titration assays were performed in 96-well plates in a thermostated chamber (Clariostar spectrofluorimeter, BMG) at 30 °C in 200 μL phosphate buffer saline using 200 nM fluorescently-labelled peptides or proteins. The fluorescence emission intensity of TP2-Rho-labelled peptides was recorded at 614 nm following excitation at 510 nm. The fluorescence emission intensity of mant-ATP was measured at […]. Data analysis was performed using the GraFit Software (Erathicus Ltd) and curve fitting was performed using a quadratic equation, as described previously. Experiments were performed in triplicate, and Kd values represent the average calculated for n = 3 to 5 experiments, together with standard deviation.

A further data set concerns the target T1, GST-cyclin D1 (Homo sapiens, UniProt P24385).
T1 construct: made in house; host or cells: E. coli
The experiment in a line: Fluorescence titration of TP2-Rho-labelled peptides with GST-cyclin D1. The format is binding. The settings on record: 200 nM TP2-Rho labelled peptide titrated with GST-cyclin D1, PBS, 30 °C, average of n = 3 to 5 ± SD. As to the method:
as §1
Recombinant GST-CDK4 and GST-cyclin D1 were expressed in E. coli by IPTG induction and purified by FPLC chromatography as described previously.
as §2

The nature of data set [5]: Circular dichroism, determination of alpha helical content. The format is physicochemical. As to the method: CD experiments were carried out using a Jasco J815 spectropolarimeter. Spectra were recorded with 100 μM of peptides dissolved in phosphate buffer 50 mM, pH 7, using a 1 mm pathlength CD cuvette at 20 °C, over a wavelength range of 190-260 nm. Continuous scanning mode was used, with a response of 1.0 s with 0.1 nm steps and a bandwidth of 2 nm. The signal to noise ratio was improved by acquiring each spectrum over an average of two scans. Baseline was corrected by subtracting the background from the sample spectrum.
Alpha helical content was determined using the following equation: % Helix = ([θ])obs * 100)/(-39500 * (1-2.57/n), where ([θ])obs is the mean residue ellipticity at 222 nm and n the number of peptide bonds.
On the technique in general: CD spectra are sensitive to the conformation of chiral molecules.

The next data set can be described thus: circular dichroism. The settings on record: 50 mM phosphate buffer; pH 7; 20 °C; 100 uM.
Data set [6] can be described thus: Solubility of stapled peptides. It counts as physicochemical.

Chain of C4D peptide derived from the alpha 5 helix of cyclin D1 (P24385 whole entry): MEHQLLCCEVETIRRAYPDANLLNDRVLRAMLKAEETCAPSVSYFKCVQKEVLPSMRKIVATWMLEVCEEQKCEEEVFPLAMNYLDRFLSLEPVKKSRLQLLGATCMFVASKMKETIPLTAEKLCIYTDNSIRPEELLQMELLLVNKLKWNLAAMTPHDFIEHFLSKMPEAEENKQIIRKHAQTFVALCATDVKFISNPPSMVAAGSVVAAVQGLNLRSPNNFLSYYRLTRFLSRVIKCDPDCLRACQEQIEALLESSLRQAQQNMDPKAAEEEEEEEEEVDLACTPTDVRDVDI
T1 sequence (P24385 whole entry): as above

As for `CCN1CCN(Cc2ccc(Nc3ncc(F)c(-c4cc(F)c5nc(C)n(C(C)C)c5c4)n3)nc2)CC1` [Abemaciclib], the IC50 in the data set with A549 cells [1] was found to be 2720 ± 2210 nM. For the same compound, the “effect on H358 orthotopic tumour growth, single agent” value in data set [2] (bioluminescence, 3 weeks, Abemaciclib 10 mg/kg daily oral, P2shortA 0.45 mg/kg intrapulmonary 2 times a week, n=10) was “slightly reduced tumour growth”. Moreover, in data set [2] (intrapulmonary P2shortA or Abemaciclib alone, immunohistochemistry), the “Ki67 or pRb levels in tumours, single agent” value is recorded as “did not reduce Ki67 or pRb levels”. Besides, the “effect on the cell cycle (proportion of cells in G1)” value with A549 cells [3] is on record as “significantly increased the proportion of cells in G1”.
The term Kd denotes the equilibrium constant for the complex coming apart. A high value points to lower affinity. As to `CC[C@H](C)[C@H](NC(=O)[C@@H]1CCCN1C(=O)[C@@H](N)CS)C(=O)N[C@@H](CO)C(=O)N[C@H](C(=O)N[C@H](C(=O)N[C@@H](CCCNC(=N)N)C(=O)N[C@@H](CCC(=O)O)C(=O)N[C@H](C(=O)N[C@@H](C)C(=O)N[C@@H](CC(C)C)C(=O)N[C@@H](CC(C)C)C(=O)N[C@@H](CCCNC(=N)N)C(=O)N[C@@H](CCCNC(=N)N)C(=O)N[C@@H](CC(C)C)C(=O)N[C@@H](CCC(=O)O)C(=O)N[C@@H](C)C(=O)N[C@@H](Cc1ccccc1)C(=O)N[C@@H](CCC(=O)O)C(N)=O)C(C)C)C(C)C)[C@@H](C)O` [CDK4 C peptide] (H-CPISTVREVALLRRLEAFE-NH2), the Kd in data set [4] was found to be 83 ± 45 nM; at GST-cyclin D1, 43 ± 24 nM. Also, the “% helix (alpha helical content)” value in data set [5] (CD, 100 μM peptide in phosphate buffer 50 mM, pH 7, 20 °C, from mean residue ellipticity at 222 nm) is recorded as 7%. In addition, in data set [5] (CD, phosphate buffer with 25% TFE), the “helicity upon addition of 25% TFE” value amounted to 46%. In data set [5] (phosphate buffer), the “conformation in solution (CD)” value is on record as “disordered”. In addition, the helicity in “circular dichroism” came to 7%.
In the case of `CC[C@H](C)[C@H](NC(=O)[C@@H]1CCCN1C(=O)[C@H](CC(C)C)NC(=O)CNC(C)=O)C(=O)N[C@@H](CO)C(=O)N[C@H](C(=O)N[C@H](C(=O)N[C@@H](CCCNC(=N)N)C(=O)N[C@@H](CCC(=O)O)C(=O)N[C@H](C(=O)N[C@@H](C)C(=O)N[C@@H](CC(C)C)C(=O)N[C@@]1(C)CCCC=CCCC[C@@](C)(C(=O)N[C@@H](C)C(=O)N[C@@H](Cc2ccccc2)C(=O)N[C@@H](CCC(=O)O)C(N)=O)NC(=O)[C@H](CC(C)C)NC(=O)[C@H](CCCNC(=N)N)NC(=O)[C@H](CCCNC(=N)N)NC1=O)C(C)C)C(C)C)[C@@H](C)O` [P3] (Ac-GLPISTVREVAL[S5]RRL[S5]AFE-NH2; staple 13-17), the solubility result in data set [6] is “poorly soluble”.
